Experiments:
[1] = test system: IL-1β release in THP-1 cells; assay: IL-1β release assay; assay type: cell-based; conditions: Homo sapiens; PMA-differentiated THP-1 cells, LPS + nigericin, cleaved IL-1β by JESS
Method: Approximately 1.5 million THP-1 cells were plated in each well of a 6-well TC plate and incubated with 40 nM PMA in RPMI (10% FBS, 1% Penstrep) for 24 hours. The media was then removed and cells were rested in RPMI (10% FBS, 1% Penstrep) for 24 hours after which time the media was removed and cells were pre-treated for 2 hours with various concentrations of compounds of interest (typically serial 3-fold dilution in RPMI+5% FBS, concentrations ranging from 1 μM to 0.5 nM) in RPMI (5% FBS). The media was again removed and cells were incubated with 250 ng/mL LPS and compounds of interest (concentrations as above) in RMPI (5% FBS) for 2 hours. The media was removed for a last time and cells were incubated with 20 μM nigericin and compounds of interest (concentrations as above) in Opti-MEM for 30 minutes. Cell media was then collected and the amount of cleaved IL-1β was determined using a JESS instrument (Protein Simple) and standard protocols. Cleaved Il-1β antibody was obtained from Cell Signaling (catalogue #83186S) and was used at 1:20 dilution in antibody diluent 2. Protein Simple 1× anti-Rabbit HRP secondary antibody was used along with Protein Simple luminol and peroxide for chemiluminescent detection. Primary antibody incubation time was increased from 30 minutes to 60 minutes.
(§1) Representative compounds were tested for inhibitory activity against NEK7 and IL-1β release according to the procedures described above.

[2] = target: T1, full-length recombinant human NEK7 (Homo sapiens, UniProt Q8TDX7); assay: NEK7 enzymatic assay; assay type: biochemical; conditions: casein substrate, [32P]-ATP, radiometric P81 filter assay
T1 construct: full-length recombinant human NEK7; GST (N); purchased SignalChem N09-10G; host or cells: Sf9 insect cells (baculovirus)
Method: Casein substrate (from bovine milk, hydrolyzed and partially dephosphorylated mixture of α, β, and κ caseins, obtained from Sigma Aldrich, catalogue #C4765, diluted in distilled water to a final concentration of 1 mg/mL, assay concentration 20 μM) and full-length recombinant human NEK7 (expressed by baculovirus in Sf9 insect cells using a N-terminal GST tag, obtained from SignalChem, catalogue #N09-10G, […], assay concentration 70 nM) were mixed in assay buffer (20 mM Hepes pH 7.5, 10 mM MgCl2, 1 mM EGTA, 0.02% Brij35, 0.02 mg/mL BSA, 0.1 mM […], 2 mM DTT, 1% DMSO). Compounds of interest (in DMSO, serial 3-fold dilution from 10 μM to 0.5 nM) or control (1% DMSO) were dispensed into the kinase reaction mixture by Acoustic technology (Echo550; nanoliter range). After incubation at room temperature for 20 minutes, the kinase reaction was initiated by addition of [^32P]-ATP (Specific activity 10 μUCi/μl) and the mixture was incubated at room temperature for 2 hours. The reaction was then stopped by spotting the reaction mixture on strips of phosphocellulose P81 paper. Following washing, the radioactivity of the P81 paper was measured and kinase activity data were expressed as the percent remaining kinase activity in test samples compared to vehicle (dimethyl sulfoxide) reactions. IC50 values and curve fits were obtained using Prism (GraphPad Software).
as §1

T1 sequence (Q8TDX7 whole entry): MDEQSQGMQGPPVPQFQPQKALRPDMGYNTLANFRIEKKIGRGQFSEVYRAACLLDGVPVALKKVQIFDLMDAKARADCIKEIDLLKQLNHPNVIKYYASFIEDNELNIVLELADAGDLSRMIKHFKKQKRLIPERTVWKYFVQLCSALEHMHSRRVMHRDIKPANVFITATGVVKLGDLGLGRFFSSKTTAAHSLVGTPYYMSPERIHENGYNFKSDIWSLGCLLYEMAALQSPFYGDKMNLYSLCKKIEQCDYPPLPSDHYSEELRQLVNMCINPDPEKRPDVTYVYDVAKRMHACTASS

| IC50 [1] | IC50 [2] | SMILES |
| --- | --- | --- |
| 50 to 250 nM | – | CN1CCN(Cc2ccc(NC(=O)Nc3ccc(Oc4ccnc5[nH]cc(C6CC6)c45)cc3F)cc2C(F)(F)F)CC1 [Example I-7, 1-(4-((3-cyclopropyl-1H-pyrrolo[2,3-b]pyridin-4-yl)oxy)-2-fluorophenyl)-3-(4-((4-methylpiperazin-1-yl)methyl)-3-(trifluoromethyl)phenyl)urea] |
| < 50 nM | – | Cc1[nH]c2nccc(Oc3ccc(NC(=O)Nc4ccc(CN5CCN(C)CC5)c(C(F)(F)F)c4)c(F)c3)c2c1Cl [Example I-11, 1-(4-((3-chloro-2-methyl-1H-pyrrolo[2,3-b]pyridin-4-yl)oxy)-2-fluorophenyl)-3-(4-((4-methylpiperazin-1-yl)methyl)-3-(trifluoromethyl)phenyl)urea] |
| < 50 nM | < 200 nM | CN1CCN(Cc2ccc(NC(=O)Nc3ccc(Oc4ccnc5[nH]cc(Cl)c45)cn3)cc2C(F)(F)F)CC1 [Example I-24, 1-(5-((3-chloro-1H-pyrrolo[2,3-b]pyridin-4-yl)oxy)pyridin-2-yl)-3-(4-((4-methylpiperazin-1-yl)methyl)-3-(trifluoromethyl)phenyl)urea] |
| 50 to 250 nM | 200 to 500 nM | Cc1c[nH]c2nccc(Oc3ccc(NC(=O)Nc4ccc(CN5CCN(C)CC5)c(C(F)(F)F)c4)c(F)c3)c12 [Example I-36, 1-(2-fluoro-4-((3-methyl-1H-pyrrolo[2,3-b]pyridin-4-yl)oxy)phenyl)-3-(4-((4-methylpiperazin-1-yl)methyl)-3-(trifluoromethyl)phenyl)urea] |
| < 50 nM | – | CCN1CCN(Cc2ccc(NC(=O)Nc3ccc(Oc4ccnc5[nH]cc(Cl)c45)cc3F)cc2C(F)(F)F)CC1 [Example I-37, 1-(4-((3-chloro-1H-pyrrolo[2,3-b]pyridin-4-yl)oxy)-2-fluorophenyl)-3-(4-((4-ethylpiperazin-1-yl)methyl)-3-(trifluoromethyl)phenyl)urea] |
| 50 to 250 nM | 200 to 500 nM | CN1CCC(Oc2ccc(NC(=O)Nc3ccc(Oc4ccnc5[nH]cc(Cl)c45)cc3F)cc2C(F)(F)F)CC1 [Example I-39, 1-(4-((3-chloro-1H-pyrrolo[2,3-b]pyridin-4-yl)oxy)-2-fluorophenyl)-3-(4-((1-methylpiperidin-4-yl)oxy)-3-(trifluoromethyl)phenyl)urea] |
| < 50 nM | 500 to 2000 nM | CN1CCC(=Cc2ccc(NC(=O)Nc3ccc(Oc4ccnc5[nH]cc(Cl)c45)cc3F)cc2C(F)(F)F)CC1 [Example I-40, 1-(4-((3-chloro-1H-pyrrolo[2,3-b]pyridin-4-yl)oxy)-2-fluorophenyl)-3-(4-((1-methylpiperidin-4-ylidene)methyl)-3-(trifluoromethyl)phenyl)urea] |
| 50 to 250 nM | 200 to 500 nM | CN1CCC(Oc2ncc(NC(=O)Nc3ccc(Oc4ccnc5[nH]cc(Cl)c45)cc3F)cc2C(F)(F)F)CC1 [Example I-58, 1-(4-((3-chloro-1H-pyrrolo[2,3-b]pyridin-4-yl)oxy)-2-fluorophenyl)-3-(6-((1-methylpiperidin-4-yl)oxy)-5-(trifluoromethyl)pyridin-3-yl)urea] |
| 250 to 1000 nM | > 2000 nM | CC(=O)N1CCC(Oc2ccc(NC(=O)Nc3ccc(Oc4ccnc5[nH]cc(Cl)c45)cc3F)cc2C(F)(F)F)CC1 [Example I-59, 1-(4-((1-acetylpiperidin-4-yl)oxy)-3-(trifluoromethyl)phenyl)-3-(4-((3-chloro-1H-pyrrolo[2,3-b]pyridin-4-yl)oxy)-2-fluorophenyl)urea] |

Source: patent US20250177382A1, “NEK7 INHIBITORS” (Halia Therapeutics, Inc., priority 2021, published 2025)
